Common to all, as to type: cell-based
One assay concerns MCF-7 (Breast Cancer). Description: SRB cytotoxicity assay, MCF-7. Particulars: cells cultured 3 days with compound, read-out: Activity against cancer cell lines (IC50), MCF-7 (Breast Cancer). An excerpt:
(§1) The compounds of the present invention can be screened by conventional assays known in the art. For example, cytotoxicity of the compound can be determined according to SRB assay described in Skehan et. al., J. Natl. Cancer Inst. 1990, 82: 1107, which is incorporated herein by reference.
(§2) In the study, sulforhodamine B (SRB) was used for screening the selective compounds of the present invention according to their anti-tumor activity on four different tumor cell lines. In SRB assay, the cultured cells were trypsinized, then counted and diluted to a suitable concentration (5000-7500 cells/100 μl) with a culture medium. The cells were inoculated into a 96-well microtiter plate at 100 μl suspension/well. The test compounds were diluted in the culture medium to 2×1000 nM˜2×0.001 nM, and added to each well in 100 μl after 20 hours. The cells were then cultured for 3 days, fixed with 100 μl 10% trichloroacetic acid at 4° C. for 1 hour, and then stained with 0.2% SRB/1% acetic acid at room temperature for 20 min. The unbound dye was rinsed with 1% acetic acid. The bound dye was dissolved with 200 μl 10 mM Tris-base. The amount of the bound dye was calculated from OD value detected at wavelength of 515 nm. The amount of the bound dye was in direct proportion to the total amount of cell proteins. The data was analyzed with Kaleida Graph Program, and the half inhibitory concentration (IC50) was calculated. Epothilones D and B were detected in parallel for comparison. The results of the cytotoxic experiments on the tested selective compounds according to the present invention are shown as follows. The other compounds according to the present invention may also be detected with the similar method.
(In general: Sulforhodamine B stains cellular protein and so reports cell mass.)

The test system of assay [1] is NCI/ADR-RES (MDR Breast Cancer). As to the kind of experiment: SRB cytotoxicity assay, NCI/ADR-RES. Particulars: cells cultured 3 days with compound, read-out: Activity against cancer cell lines (IC50), NCI/ADR-RES (MDR Breast Cancer).
Source text: as §1, §2

The next assay deals with SF-268 (Glioma). Description: SRB cytotoxicity assay, SF-268. Particulars: cells cultured 3 days with compound, read-out: Activity against cancer cell lines (IC50), SF-268 (Glioma).
Source text: as §1, §2

The next assay relates to NCI-H460 (Lung Cancer). Description: SRB cytotoxicity assay, NCI-H460. Particulars: cells cultured 3 days with compound, read-out: Activity against cancer cell lines (IC50), NCI-H460 (Lung Cancer).
Source text: as §1, §2

[2] abbreviates: Homo sapiens, NCI/ADR-RES, 72 h.

These results are taken from patent US20110112149A1, “EPOTHILONE ANALOGUES, THEIR PHARMACEUTICAL COMPOSITIONS, THEIR USE AND THEIR PREPA RATIONS” (priority 2008, published 2011).

SMILES strings stand for the structures. Like-named read-outs stand apart in the source and are kept apart here.

As to `Cc1nc2cc(C3OC(=O)CC(O)C(C)(C)C(=O)C(C)C(O)C(C)CCCC4(C)OC34)ccc2s1` (centres unmarked) [HH8], the IC50 in the assay on MCF-7 (Breast Cancer) (Homo sapiens, MCF7, 72 h) amounted to 0.5 nM; in assay [1] (setting [2]), 0.5 nM; with SF-268 (Glioma) (Homo sapiens, SF-268, 72 h) it was 1 nM; in the assay on NCI-H460 (Lung Cancer) (Homo sapiens, NCI-H460, 72 h), 0.2 nM.

Turning to `C/C1=C/C[C@@H](/C(C)=C/c2csc(C)n2)OC(=O)C[C@H](O)C(C)(C)C(=O)[C@H](C)[C@@H](O)[C@@H](C)CCC1` [Epo D, Epothilone D, reference compound], the IC50 in the assay with MCF-7 (Breast Cancer) worked out at 13 nM; in assay [1] it was 42 nM; in the assay on SF-268 (Glioma), 18 nM; with NCI-H460 (Lung Cancer) it was 17 nM.

For the molecule `C/C(=C\c1csc(C)n1)[C@@H]1C[C@@H]2O[C@]2(C)CCC[C@H](C)[C@H](O)[C@@H](C)C(=O)C(C)(C)[C@@H](O)CC(=O)O1` [Epo B, Epothilone B, reference compound], the IC50 in the assay on MCF-7 (Breast Cancer) was 0.5 nM; in assay [1], 5 nM; in the assay with SF-268 (Glioma), 0.8 nM; in the assay with NCI-H460 (Lung Cancer), 0.7 nM.

For the molecule `C/C(=C\c1csc(C)n1)C1OC(=O)CC(O)C(C)(C)C(=O)C(C)C(O)C(C)CCCC2(C)OC12` (centres unmarked) [HH6], the IC50 with MCF-7 (Breast Cancer) (Homo sapiens, MCF7, 72 h) came to 0.2 nM; in assay [1] (setting [2]), 1 nM; in the assay on SF-268 (Glioma) (Homo sapiens, SF-268, 72 h), 1 nM; in the assay on NCI-H460 (Lung Cancer) (Homo sapiens, NCI-H460, 72 h), 0.5 nM.

In the case of `C/C(=C\c1csc(C)n1)C(N)C1OC(=O)CC(O)C(C)(C)C(=O)C(C)C(O)C(C)CCCC2(C)OC12` (centres unmarked) [HH3], the IC50 in the assay on MCF-7 (Breast Cancer) (Homo sapiens, MCF7, 72 h) was 1 nM; in assay [1] (setting [2]), 3 nM; in the assay with SF-268 (Glioma) (Homo sapiens, SF-268, 72 h), 1 nM; in the assay on NCI-H460 (Lung Cancer) (Homo sapiens, NCI-H460, 72 h) it was 0.5 nM.
